# Where “and” joins values, the source holds several entries; their conditions need not be identical. Equal values may be shown once.
# Columns and labels:
# [1] = Anti-viral experiment with Golden Syrian hamsters: body weight; format: in vivo, Golden Syrian hamsters (Mesocricetus auratus); settings: for body weight, individual data: individual animals
# [2] = system: SARS-CoV-2; experiment: Anti-viral experiment with Golden Syrian hamsters: histopathology scores; format: in vivo, Golden Syrian hamsters (Mesocricetus auratus); settings: for trachea, epithelial damage (score) / bronchi, epithelial damage (score) / pulmonary parenchyma damage (score) / submucosal damage (score) / tissue repair (score) / vascular damage (score): 1 mg/kg s.c., individual hamsters; for trachea, epithelial damage (score): 0 normal, 1 mild, 2 moderate, 3 severe tracheitis; for bronchi, epithelial damage (score) / pulmonary parenchyma damage (score) / submucosal damage (score) / tissue repair (score) / vascular damage (score): sum of five lung lobes, maximum 15
# [3] = system: SARS-CoV-2; experiment: Viral loading determination via RT-qPCR in VERO-CCL81 cells; format: cell-based; settings: for Viral titer (% control): VERO CCL81, RT-qPCR, experiments 1 and 2
compound,measurement,setting,value
CCCC[C@H](NC(=O)[C@H](CC(C)C)NC(=O)OCc1ccccc1)C(O)S(=O)(=O)[O-].[Na+] (some centres unmarked) [S-Calpeptin],"body weight, individual data","[1]; G1 SARS-CoV-2 infected, 1 mg/kg s.c. daily, Day 4, 1 mg/kg",126 g and 130 g and 121 g and 120 g and 118 g and 123 g and 111 g and 116 g and 104 g
same,"body weight, individual data","[1]; G1 SARS-CoV-2 infected, 1 mg/kg s.c. daily, Day 5, 1 mg/kg",126 g and 129 g and 121 g and 119 g and 118 g and 111 g and 117 g and 104 g
same,"body weight, individual data","[1]; G1 SARS-CoV-2 infected, 1 mg/kg s.c. daily, Day 6, 1 mg/kg",115 g and 118 g and 111 g and 116 g and 105 g
same,"body weight, individual data","[1]; G1 SARS-CoV-2 infected, 1 mg/kg s.c. daily, Day 7, 1 mg/kg",117 g and 121 g and 112 g and 118 g and 106 g
same,"body weight, individual data","[1]; G4 mock infected (so in the source), Day 1",155 g and 138 g and 130 g
same,"body weight, individual data","[1]; G4 mock infected (so in the source), Day 2",156 g and 137 g and 130 g
same,"body weight, individual data","[1]; G4 mock infected (so in the source), Day 3",157 g and 138 g and 131 g
same,"body weight, individual data","[1]; G4 mock infected (so in the source), Day 4",158 g and 140 g and 130 g
same,"body weight, individual data","[1]; G4 mock infected (so in the source), Day 5",159 g and 139 g and 131 g
same,"body weight, individual data","[1]; G4 mock infected (so in the source), Day 6",160 g and 139 g and 130 g
same,"body weight, individual data","[1]; G4 mock infected (so in the source), Day 7",162 g and 141 g and 131 g
same,"body weight, average","[1]; SARS-CoV-2 infected hamsters, 1 mg/kg s.c. daily, day 1","96.7382 %, relative to day 0"
same,"body weight, average","[1]; SARS-CoV-2 infected hamsters, 1 mg/kg s.c. daily, day 2","95.2969 %, relative to day 0"
same,"body weight, average","[1]; SARS-CoV-2 infected hamsters, 1 mg/kg s.c. daily, day 3","94.3407 %, relative to day 0"
same,"body weight, average","[1]; SARS-CoV-2 infected hamsters, 1 mg/kg s.c. daily, day 4","93.4383 %, relative to day 0"
same,"body weight, average","[1]; SARS-CoV-2 infected hamsters, 1 mg/kg s.c. daily, day 5","93.2155 %, relative to day 0"
same,"body weight, average","[1]; SARS-CoV-2 infected hamsters, 1 mg/kg s.c. daily, day 6","93.1372 %, relative to day 0"
same,"body weight, average","[1]; SARS-CoV-2 infected hamsters, 1 mg/kg s.c. daily, day 7","94.5983 %, relative to day 0"
same,"body weight, average","[1]; mock infected hamsters, 1 mg/kg s.c. daily, day 1","97.4975 %, relative to day 0"
same,"body weight, average","[1]; mock infected hamsters, 1 mg/kg s.c. daily, day 2","98.3232 %, relative to day 0"
same,"body weight, average","[1]; mock infected hamsters, 1 mg/kg s.c. daily, day 3","98.7966 %, relative to day 0"
same,"body weight, average","[1]; mock infected hamsters, 1 mg/kg s.c. daily, day 4","99.2826 %, relative to day 0"
same,"body weight, average","[1]; mock infected hamsters, 1 mg/kg s.c. daily, day 5","100.017 %, relative to day 0"
same,"body weight, average","[1]; mock infected hamsters, 1 mg/kg s.c. daily, day 6","100.959 %, relative to day 0"
same,"body weight, average","[1]; mock infected hamsters, 1 mg/kg s.c. daily, day 7","101.896 %, relative to day 0"
same,"trachea, epithelial damage (score)","[2]; day 3 p.i., 1 mg/kg",0 and 1
same,"bronchi, epithelial damage (score)","[2]; day 3 p.i., 1 mg/kg",6 and 3 and 1 and 4
same,pulmonary parenchyma damage (score),"[2]; day 3 p.i., 1 mg/kg",7 and 4 and 5 and 8
same,submucosal damage (score),"[2]; day 3 p.i., 1 mg/kg",7 and 2 and 1 and 5
same,tissue repair (score),"[2]; day 3 p.i., 1 mg/kg",7 and 6 and 2 and 4
same,vascular damage (score),"[2]; day 3 p.i., 1 mg/kg",7 and 8 and 3 and 9
same,"trachea, epithelial damage (score)","[2]; day 5 p.i., 1 mg/kg",0 and 1 and 2
same,"bronchi, epithelial damage (score)",[2]; day 5 p.i.,2
same,pulmonary parenchyma damage (score),"[2]; day 5 p.i., 1 mg/kg",7 and 10 and 9
same,submucosal damage (score),"[2]; day 5 p.i., 1 mg/kg",8 and 11 and 9 and 10
same,tissue repair (score),"[2]; day 5 p.i., 1 mg/kg",6 and 8 and 9 and 10
same,vascular damage (score),"[2]; day 5 p.i., 1 mg/kg",10 and 9 and 11 and 13
same,"trachea, epithelial damage (score)","[2]; day 7 p.i., 1 mg/kg",0 and 1
same,"bronchi, epithelial damage (score)","[2]; day 7 p.i., 1 mg/kg",2 and 3 and 1
same,pulmonary parenchyma damage (score),"[2]; day 7 p.i., 1 mg/kg",8 and 7 and 10
same,submucosal damage (score),"[2]; day 7 p.i., 1 mg/kg",10 and 11 and 14
same,tissue repair (score),"[2]; day 7 p.i., 1 mg/kg",15 and 14
same,vascular damage (score),"[2]; day 7 p.i., 1 mg/kg",7 and 5 and 9
same,histopathology lesion scores versus untreated (in words),"[2]; infected hamsters, 1 mg/kg s.c. daily",no statistically significant differences in lesion scores
same,lung vascular damage scores versus untreated (in words),"[2]; infected hamsters, 1 mg/kg s.c. daily, days 5 and 7 p.i.","lower scores for vascular damage compared to the untreated group on days 5 and 7 p.i., these results were not statistically significant"
same,Viral titer (% control),[3]; 0.0781 μM,100 % control
same,Viral titer (% control),[3]; 0.1563 μM,100 % control
same,Viral titer (% control),[3]; 0.3125 μM,100 % control
same,Viral titer (% control),"[3]; 0.625 μM, listed as S-Calpepin",65 % control and 61.77 % control
same,Viral titer (% control),"[3]; 1.25 μM, listed as S-Calpepin",24 % control and 43.33 % control
same,Viral titer (% control),"[3]; 2.5 μM, listed as S-Calpepin",24.98 % control and 48.08 % control
same,Viral titer (% control),[3]; 5 μM,27.38 % control
same,EC50,"[3]; VERO-CCL81, RT-qPCR, 48 h post-infection, read-out: Viral titer EC50",700 nM

# — paper PMC10584882 (Communications Biology, 2023)
